The results in this text go back to PMC12670511, “Discovery of Nav1.7 Inhibitors through the Screening of Marine Natural Product Extracts” (Journal of Natural Products, 2025).

Assay [1] concerns the target T1, human Nav1.7 (hNav1.7) voltage-gated sodium channel alpha subunit (Homo sapiens, UniProt Q15858).
T1 construct: gene SCN9A; alpha subunit, stably expressed in HEK293 cells
Briefly: Qube automated patch-clamp electrophysiology, HEK293-hNav1.[…], inactivated state (-70 mV). It counts as cell-based.

The target of assay [2] is T1, human Nav1.7 (hNav1.7) voltage-gated sodium channel alpha subunit. In words: Qube automated patch-clamp electrophysiology, HEK293-hNav1.[…], inactivated state (-70 mV); also thallium flux assay IC50 […]. The format is cell-based. (Patch clamp records ionic current or voltage across a cell membrane.)

Molecules are shown by their SMILES.

T1 sequence (Q15858 whole entry): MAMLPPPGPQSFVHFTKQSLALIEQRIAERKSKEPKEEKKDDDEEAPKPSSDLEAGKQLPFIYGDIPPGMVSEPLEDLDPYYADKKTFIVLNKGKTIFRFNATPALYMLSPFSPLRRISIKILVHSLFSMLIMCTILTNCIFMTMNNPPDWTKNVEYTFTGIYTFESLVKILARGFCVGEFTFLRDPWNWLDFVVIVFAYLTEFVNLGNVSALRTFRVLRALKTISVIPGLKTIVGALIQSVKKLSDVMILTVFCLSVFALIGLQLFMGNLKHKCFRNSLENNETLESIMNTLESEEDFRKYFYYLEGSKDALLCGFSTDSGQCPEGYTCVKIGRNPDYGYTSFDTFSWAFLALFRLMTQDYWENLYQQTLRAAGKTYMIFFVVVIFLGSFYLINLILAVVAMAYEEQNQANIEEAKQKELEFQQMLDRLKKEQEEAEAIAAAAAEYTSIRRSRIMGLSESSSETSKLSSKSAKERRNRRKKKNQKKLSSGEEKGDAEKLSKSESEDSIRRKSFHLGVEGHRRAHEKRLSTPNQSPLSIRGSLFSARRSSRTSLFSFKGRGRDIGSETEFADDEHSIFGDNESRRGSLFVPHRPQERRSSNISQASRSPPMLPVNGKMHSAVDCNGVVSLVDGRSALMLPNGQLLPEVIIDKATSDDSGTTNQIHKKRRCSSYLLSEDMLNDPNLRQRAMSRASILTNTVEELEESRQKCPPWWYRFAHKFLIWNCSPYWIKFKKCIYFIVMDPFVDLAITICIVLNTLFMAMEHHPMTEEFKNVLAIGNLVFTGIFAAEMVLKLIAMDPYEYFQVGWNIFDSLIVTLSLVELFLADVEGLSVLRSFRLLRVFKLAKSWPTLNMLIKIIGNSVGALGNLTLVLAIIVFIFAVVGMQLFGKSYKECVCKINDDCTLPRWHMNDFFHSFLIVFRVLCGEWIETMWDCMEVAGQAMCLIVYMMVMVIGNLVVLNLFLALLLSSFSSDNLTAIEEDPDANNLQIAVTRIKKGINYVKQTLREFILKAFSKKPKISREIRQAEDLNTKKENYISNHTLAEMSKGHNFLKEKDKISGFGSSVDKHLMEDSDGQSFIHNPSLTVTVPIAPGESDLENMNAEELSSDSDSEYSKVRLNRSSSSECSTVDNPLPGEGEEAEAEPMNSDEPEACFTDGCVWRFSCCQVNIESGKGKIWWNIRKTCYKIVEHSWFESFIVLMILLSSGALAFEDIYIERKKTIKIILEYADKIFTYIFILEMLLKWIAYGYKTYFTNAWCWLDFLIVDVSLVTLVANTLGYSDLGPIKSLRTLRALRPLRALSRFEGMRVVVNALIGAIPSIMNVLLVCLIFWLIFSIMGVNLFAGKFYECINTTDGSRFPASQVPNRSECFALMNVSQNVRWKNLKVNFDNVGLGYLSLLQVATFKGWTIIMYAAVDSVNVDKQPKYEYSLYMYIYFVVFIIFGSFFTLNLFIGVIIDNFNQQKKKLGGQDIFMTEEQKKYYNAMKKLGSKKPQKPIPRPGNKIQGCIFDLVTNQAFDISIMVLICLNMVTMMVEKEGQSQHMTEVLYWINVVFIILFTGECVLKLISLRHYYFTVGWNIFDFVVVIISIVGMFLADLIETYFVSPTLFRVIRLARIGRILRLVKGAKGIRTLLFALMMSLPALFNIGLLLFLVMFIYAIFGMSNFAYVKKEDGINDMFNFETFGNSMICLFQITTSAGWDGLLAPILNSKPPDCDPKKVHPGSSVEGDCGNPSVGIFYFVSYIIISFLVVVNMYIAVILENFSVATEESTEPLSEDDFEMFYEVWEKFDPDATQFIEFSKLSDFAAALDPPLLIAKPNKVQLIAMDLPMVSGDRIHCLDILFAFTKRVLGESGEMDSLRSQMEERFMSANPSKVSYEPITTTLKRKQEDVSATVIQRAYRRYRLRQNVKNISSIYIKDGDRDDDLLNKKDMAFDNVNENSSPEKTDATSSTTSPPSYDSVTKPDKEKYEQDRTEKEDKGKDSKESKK

For the molecule `CCCCCCCCCCCCCCCC(=O)OC[C@H](CO[C@H]1O[C@H](CS(=O)(=O)O)[C@@H](O)[C@H](O)[C@H]1O)OC(=O)CCCCCCCCCCCCCCC` [compound 2, sulfoquinovosyldiacylglycerin], the affinity in assay [1], expressed as Kd, was 25.2 µM.
Take `CCCCCCCC/C=C\CCCCCCCC(=O)OC(COC(=O)CCCCCCCCCCCCCCC)CO[C@@H]1O[C@H](CO)[C@H](O)[C@H](O)[C@H]1O` (stereo partly drawn) [compound 1, 1-palmitoyl-2-oleoyl-3-(β-D-galactosyl)-glycerol]: the dissociation constant (Kd) (in general, the constant that tells how readily two partners part at equilibrium) in assay [2] is 49.9 µM.
